Assay results: ChEMBL document CHEMBL4715809, “Design, synthesis, and biological activity of 4-(imidazo[1,2-b]pyridazin-3-yl)-1H-pyrazol-1-yl-phenylbenzamide derivatives as BCR-ABL kinase inhibitors” (Bioorg Med Chem Lett, 2016)

What was measured:
U-937 = assay: Antiproliferative activity against human U937 cells assessed as reduction in cell viability after 24 hrs by CCK8 assay; type: functional, cell-based; conditions: U-937, 24 h
K562 = assay: Antiproliferative activity against human K562 cells assessed as reduction in cell viability after 24 hrs by CCK8 assay; type: functional, cell-based; conditions: K562, 24 h
[1] = Cytotoxicity against human 293T cells assessed as reduction in cell viability after 24 hrs by CCK8 assay; type: cell-based; conditions: 293T (HEK-293T) cells
Bcr/Abl fusion protein = Bcr/Abl fusion protein (Homo sapiens, UniProt P00519); assay: (§1) Inhibition of BCR (unknown origin)/recombinant human N-terminal His-tagged ABL1 (27 to end residues) expressed in baculovirus infected Sf9 cells using ABLtide as substrate preincubated for 30 mins followed by substrate addition and measured after 1 hr in presence of ATP by kinase-Glo luminescence assay
Sequence of Bcr/Abl fusion protein (P00519 whole entry, the tested form may be a part): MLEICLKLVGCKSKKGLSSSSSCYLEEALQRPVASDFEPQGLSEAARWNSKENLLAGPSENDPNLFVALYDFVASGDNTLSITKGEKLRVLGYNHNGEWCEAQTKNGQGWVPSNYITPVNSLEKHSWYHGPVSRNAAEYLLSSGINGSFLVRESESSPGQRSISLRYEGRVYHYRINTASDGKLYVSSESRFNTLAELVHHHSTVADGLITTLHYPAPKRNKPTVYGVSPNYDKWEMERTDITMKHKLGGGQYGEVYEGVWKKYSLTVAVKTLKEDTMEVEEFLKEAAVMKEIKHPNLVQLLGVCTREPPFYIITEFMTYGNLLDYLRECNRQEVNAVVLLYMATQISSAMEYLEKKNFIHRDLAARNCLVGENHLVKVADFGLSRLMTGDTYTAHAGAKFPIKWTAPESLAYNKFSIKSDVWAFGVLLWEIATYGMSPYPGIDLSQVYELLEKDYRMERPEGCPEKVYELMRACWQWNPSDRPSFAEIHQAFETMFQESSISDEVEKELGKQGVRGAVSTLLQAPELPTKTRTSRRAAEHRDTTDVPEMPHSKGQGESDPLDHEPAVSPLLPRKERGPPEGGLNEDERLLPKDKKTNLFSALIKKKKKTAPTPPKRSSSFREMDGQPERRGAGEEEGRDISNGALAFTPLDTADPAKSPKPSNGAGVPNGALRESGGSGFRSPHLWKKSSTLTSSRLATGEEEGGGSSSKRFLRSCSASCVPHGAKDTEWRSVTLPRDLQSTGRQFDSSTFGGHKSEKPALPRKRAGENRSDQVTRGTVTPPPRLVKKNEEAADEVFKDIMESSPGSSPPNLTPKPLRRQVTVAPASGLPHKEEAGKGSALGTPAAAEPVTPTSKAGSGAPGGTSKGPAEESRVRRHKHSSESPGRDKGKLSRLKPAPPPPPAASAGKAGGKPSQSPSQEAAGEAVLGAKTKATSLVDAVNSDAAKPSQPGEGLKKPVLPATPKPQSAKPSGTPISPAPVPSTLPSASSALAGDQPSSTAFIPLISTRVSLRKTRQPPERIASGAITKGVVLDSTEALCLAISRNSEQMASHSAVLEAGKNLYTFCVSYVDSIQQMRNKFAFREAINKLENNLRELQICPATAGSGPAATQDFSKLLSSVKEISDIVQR
Sequence of Bcr/Abl fusion protein (P11274 whole entry, further chain, the tested form may be a part): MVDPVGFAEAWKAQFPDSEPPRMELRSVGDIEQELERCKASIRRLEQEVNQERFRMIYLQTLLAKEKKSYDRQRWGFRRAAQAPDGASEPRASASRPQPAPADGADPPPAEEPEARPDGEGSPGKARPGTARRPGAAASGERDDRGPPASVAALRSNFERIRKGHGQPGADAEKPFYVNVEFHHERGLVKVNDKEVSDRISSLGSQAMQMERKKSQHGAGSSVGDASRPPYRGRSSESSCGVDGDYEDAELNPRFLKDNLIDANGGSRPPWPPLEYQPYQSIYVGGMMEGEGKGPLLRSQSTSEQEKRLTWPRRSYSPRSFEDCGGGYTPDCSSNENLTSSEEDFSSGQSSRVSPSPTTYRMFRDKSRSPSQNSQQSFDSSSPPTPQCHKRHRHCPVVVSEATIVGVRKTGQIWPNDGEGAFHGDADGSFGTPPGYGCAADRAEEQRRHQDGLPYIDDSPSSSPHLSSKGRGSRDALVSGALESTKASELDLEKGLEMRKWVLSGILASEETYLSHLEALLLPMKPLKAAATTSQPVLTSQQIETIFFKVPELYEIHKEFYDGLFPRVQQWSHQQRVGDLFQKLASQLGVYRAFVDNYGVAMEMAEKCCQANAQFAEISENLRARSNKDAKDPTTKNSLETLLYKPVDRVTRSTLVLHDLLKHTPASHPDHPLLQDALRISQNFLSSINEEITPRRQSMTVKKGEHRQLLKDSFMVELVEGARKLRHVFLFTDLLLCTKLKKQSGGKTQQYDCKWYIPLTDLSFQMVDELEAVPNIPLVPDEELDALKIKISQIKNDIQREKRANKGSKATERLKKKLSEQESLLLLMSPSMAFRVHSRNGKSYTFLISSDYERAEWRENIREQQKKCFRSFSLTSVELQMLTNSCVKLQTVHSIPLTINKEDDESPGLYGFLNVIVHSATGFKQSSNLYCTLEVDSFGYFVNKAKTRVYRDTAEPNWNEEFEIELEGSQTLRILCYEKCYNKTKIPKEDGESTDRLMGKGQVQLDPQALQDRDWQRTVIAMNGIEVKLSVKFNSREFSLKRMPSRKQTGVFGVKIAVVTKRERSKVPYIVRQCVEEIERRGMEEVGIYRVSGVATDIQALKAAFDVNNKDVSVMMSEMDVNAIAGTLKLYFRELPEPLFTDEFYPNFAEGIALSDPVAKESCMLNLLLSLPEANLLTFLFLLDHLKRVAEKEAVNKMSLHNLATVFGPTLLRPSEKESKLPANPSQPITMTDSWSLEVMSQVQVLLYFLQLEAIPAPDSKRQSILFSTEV

[2] = molecular target: Bcr/Abl fusion protein (Homo sapiens) (UniProt P00519+P11274); assay: as §1, with “Potency index, ratio of staurosporine IC50 to test compound IC50 for inhibition” for “Inhibition”; conditions: time 90.0 min
Sequence of Bcr/Abl fusion protein (Homo sapiens) (P00519 whole entry, looked up, the tested form may be a part): as the sequence (P00519 whole entry, the tested form may be a part) above
Sequence of Bcr/Abl fusion protein (Homo sapiens) (P11274 whole entry, looked up, the tested form may be a part): as the sequence (P11274 whole entry, further chain, the tested form may be a part) above

Structure (SMILES) | IC50 (U-937) | IC50 (K562) | IC50 (Bcr/Abl fusion protein) | Ratio IC50 [2] | CC50 at 24 h [1]
Cc1ccc(NC(=O)c2ccc(F)cc2)cc1-n1cc(-c2cnc3cccnn23)cn1 | > 20 µM | 12.4 µM | 0.0809 µM | – | > 80 µM
Cc1ccc(NC(=O)c2ccc(C(F)(F)F)cc2)cc1-n1cc(-c2cnc3cccnn23)cn1 | > 20 µM | 10.5 µM | 0.0741 µM | – | > 80 µM
Cc1ccc(NC(=O)c2cccc(Cl)c2)cc1-n1cc(-c2cnc3cccnn23)cn1 | > 20 µM | 5.08 µM | 0.0222 µM | – | > 80 µM
Cc1ccc(NC(=O)c2ccc(CN3CCOCC3)cc2)cc1-n1cc(-c2cnc3ccnn3c2)cn1 | – | – | 2.44 µM | – | –
CCc1ccc(C(=O)Nc2ccc(C)c(-n3cc(-c4cnc5cccnn45)cn3)c2)cc1 | > 20 µM | 7.54 µM | 0.0194 µM | – | > 80 µM

More lines, in order of falling IC50 (U-937), values ahead:

IC50 (U-937) | IC50 (K562) | IC50 (Bcr/Abl fusion protein) | Ratio IC50 [2] | Structure (SMILES) | CC50 at 24 h [1]
16.3 µM | 19.7 µM | 0.767 µM | – | COc1ccc(C(=O)Nc2ccc(C)c(-n3cc(-c4cnc5ccnn5c4)cn3)c2)cc1 | > 80 µM
13.7 µM | < 0.002 µM | 0.0085 µM | 14.3 | Cc1ccc(NC(=O)c2cccc(C(F)(F)F)c2)cc1-n1cc(-c2cnc3cccnn23)cn1 | 40.3 µM
13.1 µM | 6.93 µM | 0.804 µM | – | Cc1ccc(NC(=O)c2ccc(C(F)(F)F)cc2)cc1-n1cc(-c2cnc3ccnn3c2)cn1 | 43.2 µM
12.4 µM | 7.38 µM | – | – | Cc1ccc(NC(=O)c2ccc(CN3CCN(C)CC3)cc2)cc1Nc1nccc(-c2cccnc2)n1 [IMATINIB] | 27.5 µM
12.4 µM | 8.25 µM | 0.109 µM | – | Cc1ccc(NC(=O)c2ccc(CN3CCOCC3)cc2)cc1-n1cc(-c2cnc3cccnn23)cn1 | 9.04 µM
10.8 µM | < 0.002 µM | 0.0261 µM | – | Cc1ccc(NC(=O)c2ccc(CN3CCN(C)CC3)cc2)cc1-n1cc(-c2cnc3cccnn23)cn1 | 23.8 µM
6.83 µM | 5.88 µM | 0.621 µM | – | Cc1ccc(NC(=O)c2ccc(CN3CCCN(C)CC3)cc2)cc1-n1cc(-c2cnc3ccnn3c2)cn1 | 20.5 µM
